Patent US12570650B2, “6-substituted pyridazine compounds as SMARCA2 and/or SMARCA4 degraders” (Aurigene Oncology Limited, priority 2020, dated 2026)

Legend:
Assay type in all cases: cell-based
SMARCA2 = target: T1, SMARCA2 (Homo sapiens, UniProt P51531); test: SMARCA2 degradation in VCaP cells by Western blot; conditions: 16 hours
T1 construct: Determination of SMARCA2 and SMARCA4 Degradation in VCaP Cells by Western Blot; endogenous in cells; host or cells: VCaP (ATCC CRL-2876)
Description: Example-P2: Determination of SMARCA2 and SMARCA4 Degradation in VCaP Cells by Western Blot
VCaP (ATCC CRL-2876) was plated in 6 well plates using complete Dulbecco's Modified Eagle's Medium. On the third day, compounds of present invention were added to cells from 10 mM stocks made in DMSO (Sigma Cat no. D2650). Each concentration of compound was tested with DMSO not exceeding final percentage of 0.3 in the cells. Cells were incubated with the compound for 16 hours followed by harvesting with 1×RIPA lysis buffer (Thermo Fischer, catalogue number #89900) containing protease inhibitor cocktail (Sigma catalogue number #P-8340). Equal amount of protein was loaded on SDS PAGE gel for electrophoresis. Western blot was carried out for detection of either SMARCA2 (Cell signalling technologies, catalogue number #11966) or SMARCA4 antibody (Cell signalling technologies, catalogue number #52251). Beta-Tubulin antibody (Cell signalling technologies, catalogue number #86298) was used as loading control. Percentage of SMARCA2 or SMARCA4 degradation was calculated using formula % Degradation=100−(normalized band intensity in treated sample/normalized band intensity in DMSO sample)*100.

SMARCA4 = target: T2, SMARCA4 (Homo sapiens, UniProt P51532); test: SMARCA4 degradation in VCaP cells by Western blot; conditions: 16 hours
T2 construct: Determination of SMARCA2 and SMARCA4 Degradation in VCaP Cells by Western Blot; endogenous in cells; host or cells: VCaP (ATCC CRL-2876)
Description: On the third day, compounds of present invention were added to cells from 10 mM stocks made in DMSO (Sigma Cat no. D2650). Each concentration of compound was tested with DMSO not exceeding final percentage of 0.3 in the cells. […] Equal amount of protein was loaded on SDS PAGE gel for electrophoresis. […] Percentage of SMARCA2 or SMARCA4 degradation was calculated using formula % Degradation=100−(normalized band intensity in treated sample/normalized band intensity in DMSO sample)*100.

SK-MEL-5 cells = test: Anti proliferative activity, Cell Titer Glo assay, SK-MEL-5; conditions: Homo sapiens, SK-MEL-5, SK-MEL-5 cells, retreatment Day 4, terminated day 8, CellTiter-Glo
Description: (§1) Example-P3: Determination of Anti Proliferative Activity of Compounds by Cell Titer Glo®(Promega) Assay
(§2) Cells were seeded into 96-well plates and the plate was incubated in 37 degrees incubator overnight. The next day, compounds were diluted 3-fold to cover 9-point concentration range in DMSO. Intermediate plate dilution was prepared in media followed with compound treatment in cells. Retreatment of cells with compound dilutions was performed on Day 4 and assay was terminated on day 8 for SK-MEL-5 cells using CellTiter-Glo and the plate was kept on orbital shaker for 20 minutes at RT. Assay was terminated on day 6 for RERF-LC-A1 without a compound retreatment. Luminescence signal was recorded on VICTOR^3 instrument. Percent inhibition of proliferation was calculated at each concentration and plotted against the compound concentration. EC50 value was calculated using GraphPad software.

RERF-LC-A1 cell line = test: Anti proliferative activity, Cell Titer Glo assay, RERF-LC-A1; conditions: 144 h; RERF-LC-A1 cells, terminated day 6 without retreatment, CellTiter-Glo
Description: as §1, §2
Herein the group “++” refers to EC50 (RERF-LC-A1) values lower than 100 nM and “+” refers to EC50 (RERF-LC-A1) values greater than 100 nM.

T2 sequence (P51532 whole entry): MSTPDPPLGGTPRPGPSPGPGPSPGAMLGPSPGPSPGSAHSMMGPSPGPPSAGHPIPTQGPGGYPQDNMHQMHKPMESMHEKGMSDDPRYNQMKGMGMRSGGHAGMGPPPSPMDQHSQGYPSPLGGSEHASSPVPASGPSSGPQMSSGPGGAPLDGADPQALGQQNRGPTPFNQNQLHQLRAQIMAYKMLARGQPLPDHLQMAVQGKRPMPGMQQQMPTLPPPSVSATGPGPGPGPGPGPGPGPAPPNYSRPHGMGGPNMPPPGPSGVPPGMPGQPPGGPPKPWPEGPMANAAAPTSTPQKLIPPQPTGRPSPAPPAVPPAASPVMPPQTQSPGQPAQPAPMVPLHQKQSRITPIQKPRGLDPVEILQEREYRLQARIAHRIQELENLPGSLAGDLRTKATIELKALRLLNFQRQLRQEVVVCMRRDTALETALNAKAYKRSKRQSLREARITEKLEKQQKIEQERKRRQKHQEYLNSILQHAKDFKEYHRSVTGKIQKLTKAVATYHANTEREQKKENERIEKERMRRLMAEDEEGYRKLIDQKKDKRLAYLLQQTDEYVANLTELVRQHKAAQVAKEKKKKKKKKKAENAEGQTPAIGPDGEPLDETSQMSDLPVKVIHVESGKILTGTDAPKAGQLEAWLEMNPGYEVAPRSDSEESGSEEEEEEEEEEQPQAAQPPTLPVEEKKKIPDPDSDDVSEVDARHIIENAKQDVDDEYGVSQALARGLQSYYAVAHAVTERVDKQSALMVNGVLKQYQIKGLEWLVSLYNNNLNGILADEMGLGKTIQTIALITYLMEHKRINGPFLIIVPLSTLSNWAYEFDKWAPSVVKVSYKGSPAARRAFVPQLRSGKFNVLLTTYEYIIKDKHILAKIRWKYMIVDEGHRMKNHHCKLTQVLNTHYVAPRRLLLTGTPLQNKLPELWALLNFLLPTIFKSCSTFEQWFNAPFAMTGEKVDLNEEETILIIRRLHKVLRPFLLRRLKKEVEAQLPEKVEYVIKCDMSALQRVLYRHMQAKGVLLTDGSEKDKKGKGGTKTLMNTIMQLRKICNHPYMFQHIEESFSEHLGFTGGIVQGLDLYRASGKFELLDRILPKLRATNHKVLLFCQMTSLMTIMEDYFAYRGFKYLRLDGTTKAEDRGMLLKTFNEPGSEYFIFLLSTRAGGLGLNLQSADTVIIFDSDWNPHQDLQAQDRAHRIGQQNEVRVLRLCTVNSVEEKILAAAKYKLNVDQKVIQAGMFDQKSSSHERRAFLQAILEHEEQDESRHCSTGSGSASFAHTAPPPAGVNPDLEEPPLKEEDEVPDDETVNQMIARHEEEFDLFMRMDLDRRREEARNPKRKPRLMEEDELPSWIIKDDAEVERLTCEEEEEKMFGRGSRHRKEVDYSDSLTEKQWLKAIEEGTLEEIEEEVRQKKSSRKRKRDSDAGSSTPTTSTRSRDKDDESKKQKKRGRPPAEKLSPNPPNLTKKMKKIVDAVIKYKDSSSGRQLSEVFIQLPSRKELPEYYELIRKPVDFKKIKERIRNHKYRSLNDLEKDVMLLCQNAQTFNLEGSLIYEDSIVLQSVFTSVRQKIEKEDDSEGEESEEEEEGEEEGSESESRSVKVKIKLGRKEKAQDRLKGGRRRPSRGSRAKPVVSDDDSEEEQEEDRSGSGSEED
T1 sequence (P51531 whole entry): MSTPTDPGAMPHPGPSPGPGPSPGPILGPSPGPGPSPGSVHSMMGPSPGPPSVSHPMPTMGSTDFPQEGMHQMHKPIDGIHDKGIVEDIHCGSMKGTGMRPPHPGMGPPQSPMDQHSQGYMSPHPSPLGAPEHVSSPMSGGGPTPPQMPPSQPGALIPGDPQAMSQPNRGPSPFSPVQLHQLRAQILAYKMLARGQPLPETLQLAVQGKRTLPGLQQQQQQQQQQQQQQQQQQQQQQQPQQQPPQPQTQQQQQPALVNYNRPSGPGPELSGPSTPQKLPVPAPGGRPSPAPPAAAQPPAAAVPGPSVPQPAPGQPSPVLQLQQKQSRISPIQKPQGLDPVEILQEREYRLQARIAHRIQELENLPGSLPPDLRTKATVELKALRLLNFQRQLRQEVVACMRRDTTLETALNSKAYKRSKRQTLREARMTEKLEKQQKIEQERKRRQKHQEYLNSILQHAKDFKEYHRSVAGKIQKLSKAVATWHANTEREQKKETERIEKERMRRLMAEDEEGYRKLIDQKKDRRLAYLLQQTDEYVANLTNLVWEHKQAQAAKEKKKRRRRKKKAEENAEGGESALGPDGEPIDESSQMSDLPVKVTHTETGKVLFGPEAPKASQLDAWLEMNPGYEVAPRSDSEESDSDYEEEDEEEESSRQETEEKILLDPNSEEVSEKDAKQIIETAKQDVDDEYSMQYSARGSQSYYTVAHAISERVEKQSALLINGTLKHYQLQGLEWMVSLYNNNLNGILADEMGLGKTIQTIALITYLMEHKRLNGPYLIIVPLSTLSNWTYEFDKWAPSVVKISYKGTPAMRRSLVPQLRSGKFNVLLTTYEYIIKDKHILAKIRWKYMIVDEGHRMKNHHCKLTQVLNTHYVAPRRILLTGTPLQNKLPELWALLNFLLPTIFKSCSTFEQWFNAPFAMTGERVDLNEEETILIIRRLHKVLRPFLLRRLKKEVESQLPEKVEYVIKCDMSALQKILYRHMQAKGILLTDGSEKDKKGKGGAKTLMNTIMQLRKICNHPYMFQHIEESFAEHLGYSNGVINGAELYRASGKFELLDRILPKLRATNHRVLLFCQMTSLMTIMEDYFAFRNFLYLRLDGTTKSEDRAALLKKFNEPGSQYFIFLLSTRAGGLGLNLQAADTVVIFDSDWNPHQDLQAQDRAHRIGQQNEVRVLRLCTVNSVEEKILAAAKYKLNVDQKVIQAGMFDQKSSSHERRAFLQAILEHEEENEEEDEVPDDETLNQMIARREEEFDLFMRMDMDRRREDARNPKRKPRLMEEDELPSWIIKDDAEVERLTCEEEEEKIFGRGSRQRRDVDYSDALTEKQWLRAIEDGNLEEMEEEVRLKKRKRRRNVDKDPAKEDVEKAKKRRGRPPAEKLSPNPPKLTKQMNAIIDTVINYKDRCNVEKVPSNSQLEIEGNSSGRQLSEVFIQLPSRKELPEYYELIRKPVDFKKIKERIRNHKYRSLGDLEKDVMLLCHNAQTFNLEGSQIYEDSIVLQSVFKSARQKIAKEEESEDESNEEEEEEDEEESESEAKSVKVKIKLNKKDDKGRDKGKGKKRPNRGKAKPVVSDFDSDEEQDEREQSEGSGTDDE

SMILES	Percent degradation (at 100 nM) SMARCA2 (SMARCA2)	Percent degradation (at 100 nM) SMARCA4 (SMARCA4)	EC50 (SK-MEL-5 cells)	EC50 (RERF-LC-A1 cell line)
Cc1ncsc1-c1ccc([C@H](C)NC(=O)[C@@H]2C[C@@H](O)CN2C(=O)[C@@H](NC(=O)CN2CCN(c3ccc(-c4cnnc(-c5ccccc5O)c4)cc3)CC2)C(C)(C)C)cc1 [Compound 2, (2S,4R)-4-hydroxy-1-((S)-2-(2-(4-(4-(6-(2-hydroxyphenyl)pyridazin-4-yl)phenyl)piperazin-1-yl)acetamido)-3,3-dimethylbutanoyl)-N-((S)-1-(4-(4-methylthiazol-5-yl)phenyl)ethyl)pyrrolidine-2-carboxamide]	94%	0%	< 250 nM	< 100 nM
Cc1ncsc1-c1ccc([C@H](C)NC(=O)[C@@H]2C[C@@H](O)CN2C(=O)[C@@H](NC(=O)CC2CCN(c3ccc(-c4cnnc(-c5ccccc5O)c4)cc3)CC2)C(C)(C)C)cc1 [Compound 6, (2S,4R)-4-hydroxy-1-((S)-2-(2-(1-(4-(6-(2-hydroxyphenyl)pyridazin-4-yl)phenyl)piperidin-4-yl)acetamido)-3,3-dimethylbutanoyl)-N-((S)-1-(4-(4-methylthiazol-5-yl)phenyl)ethyl)pyrrolidine-2-carboxamide]	97%	40%	< 250 nM	< 100 nM
Cc1ncsc1-c1ccc(CNC(=O)[C@@H]2C[C@@H](O)CN2C(=O)[C@@H](NC(=O)CN2CCC(c3ccc(-c4cnnc(-c5ccccc5O)c4)cc3)CC2)C(C)(C)C)cc1 [Compound 12, (2S,4R)-4-hydroxy-1-((S)-2-(2-(4-(4-(6-(2-hydroxyphenyl)pyridazin-4-yl)phenyl)piperidin-1-yl)acetamido)-3,3-dimethylbutanoyl)-N-(4-(4-methylthiazol-5-yl)benzyl)pyrrolidine-2-carboxamide]	75%	0%	> 500 nM	< 100 nM
Cc1ncsc1-c1ccc([C@H](C)NC(=O)[C@@H]2C[C@@H](O)CN2C(=O)[C@@H](NC(=O)CN2CCC(c3ccc(-c4cnnc(-c5ccccc5O)c4)cc3)CC2)C(C)(C)C)cc1 [Compound 11, (2S,4R)-4-hydroxy-1-((S)-2-(2-(4-(4-(6-(2-hydroxyphenyl)pyridazin-4-yl)phenyl)piperidin-1-yl)acetamido)-3,3-dimethylbutanoyl)-N-((S)-1-(4-(4-methylthiazol-5-yl)phenyl)ethyl)pyrrolidine-2-carboxamide]	91%	0%	< 250 nM	< 100 nM
Cc1ncsc1-c1ccc([C@H](C)NC(=O)[C@@H]2C[C@@H](O)CN2C(=O)[C@@H](NC(=O)CN2CC3CCC(C2)N3c2ccc(-c3cnnc(-c4ccccc4O)c3)cc2)C(C)(C)C)cc1 [Compound 24, (2S,4R)-4-hydroxy-1-((2S)-2-(2-(8-(4-(6-(2-hydroxyphenyl)pyridazin-4-yl)phenyl)-3,8-diazabicyclo[3.2.1]octan-3-yl)acetamido)-3,3-dimethylbutanoyl)-N-((S)-1-(4-(4-methylthiazol-5-yl)phenyl)ethyl)pyrrolidine-2-carboxamide]	96%	15%	< 250 nM	< 100 nM
Cc1ncsc1-c1ccc([C@H](C)NC(=O)[C@@H]2C[C@@H](O)CN2C(=O)[C@@H](NC(=O)CN2CC(c3ccc(-c4cnnc(-c5ccccc5O)c4)cc3)C2)C(C)(C)C)cc1 [Compound 21, (2S,4R)-4-hydroxy-1-((S)-2-(2-(3-(4-(6-(2-hydroxyphenyl)pyridazin-4-yl)phenyl)azetidin-1-yl)acetamido)-3,3-dimethylbutanoyl)-N-((S)-1-(4-(4-methylthiazol-5-yl)phenyl)ethyl)pyrrolidine-2-carboxamide]	21%	4%	> 500 nM	
Cc1ncsc1-c1ccc([C@H](C)NC(=O)[C@@H]2C[C@@H](O)CN2C(=O)[C@@H](NC(=O)CN2C3CCC2CC(c2ccc(-c4cnnc(-c5ccccc5O)c4)cc2)C3)C(C)(C)C)cc1 (stereo partly drawn) [Compound 25, (2S,4R)-4-hydroxy-1-((2S)-2-(2-(3-(4-(6-(2-hydroxyphenyl)pyridazin-4-yl)phenyl)-8-azabicyclo[3.2.1]octan-8-yl)acetamido)-3,3-dimethylbutanoyl)-N-((S)-1-(4-(4-methylthiazol-5-yl)phenyl)ethyl)pyrrolidine-2-carboxamide]	75%	0%	250 to 500 nM	
Cc1ncsc1-c1ccc([C@H](C)NC(=O)[C@@H]2C[C@@H](O)CN2C(=O)[C@@H](NC(=O)CN2CCC(c3ccc(-c4cnnc(-c5ccccc5O)c4)cc3F)CC2)C(C)(C)C)cc1 [Compound 15, (2S,4R)-1-((S)-2-(2-(4-(2-fluoro-4-(6-(2-hydroxyphenyl)pyridazin-4-yl)phenyl)piperidin-1-yl)acetamido)-3,3-dimethylbutanoyl)-4-hydroxy-N-((S)-1-(4-(4-methylthiazol-5-yl)phenyl)ethyl)pyrrolidine-2-carboxamide]	60%	0%	> 500 nM	
Cc1ncsc1-c1ccc([C@H](C)NC(=O)[C@@H]2C[C@@H](O)CN2C(=O)[C@@H](NC(=O)CN2CC3(CC(c4ccc(-c5cnnc(-c6ccccc6O)c5)cc4)C3)C2)C(C)(C)C)cc1 [Compound 31, (2S,4R)-4-hydroxy-1-((S)-2-(2-(6-(4-(6-(2-hydroxyphenyl)pyridazin-4-yl)phenyl)-2-azaspiro[3.3]heptan-2-yl)acetamido)-3,3-dimethylbutanoyl)-N-((S)-1-(4-(4-methylthiazol-5-yl)phenyl)ethyl)pyrrolidine-2-carboxamide]	89%	0%	250 to 500 nM	
Cc1ncsc1-c1ccc([C@H](C)NC(=O)[C@@H]2C[C@@H](O)CN2C(=O)C(c2cc(OCCOc3ccc(-c4cnnc(-c5ccccc5O)c4)cc3)no2)C(C)C)cc1 (mixture of isomers) [Compound 42, (2S,4R)-4-hydroxy-1-(2-(3-(2-(4-(6-(2-hydroxyphenyl)pyridazin-4-yl)phenoxy)ethoxy)isoxazol-5-yl)-3-methylbutanoyl)-N-((S)-1-(4-(4-methylthiazol-5-yl)phenyl)ethyl)pyrrolidine-2-carboxamide]	57%			> 100 nM
Cc1ncsc1-c1ccc([C@H](C)NC(=O)[C@@H]2C[C@@H](O)CN2C(=O)[C@@H](NC(=O)CN2CCC(c3ccc(-c4cnnc(-c5cc(F)ccc5O)c4)cc3)CC2)C(C)(C)C)cc1 [Compound 13, (2S,4R)-1-((S)-2-(2-(4-(4-(6-(5-fluoro-2-hydroxyphenyl)pyridazin-4-yl)phenyl)piperidin-1-yl)acetamido)-3,3-dimethylbutanoyl)-4-hydroxy-N-((S)-1-(4-(4-methylthiazol-5-yl)phenyl)ethyl)pyrrolidine-2-carboxamide]	17%	0%	> 500 nM	
Cc1ncsc1-c1ccc([C@H](C)NC(=O)[C@@H]2C[C@@H](O)CN2C(=O)[C@@H](NC(=O)C(C)N2CCC(c3ccc(-c4cnnc(-c5ccccc5O)c4)cc3)CC2)C(C)(C)C)cc1 (stereo partly drawn) [Compound 14, (2S,4R)-4-hydroxy-1-((2S)-2-(2-(4-(4-(6-(2-hydroxyphenyl)pyridazin-4-yl)phenyl)piperidin-1-yl)propanamido)-3,3-dimethylbutanoyl)-N-((S)-1-(4-(4-methylthiazol-5-yl)phenyl)ethyl)pyrrolidine-2-carboxamide]			> 500 nM	< 100 nM
